Earlier results as cited in US7560120B2, “Vehicles for delivery of biologically active substances” (University of Tennessee Research Foundation, priority 2002, dated 2009).
Where a name gives a salt, the structure may show the parent alone. Read-outs that look alike come from different tables or passages of the source.

Key:
[1] = system: Rat; conditions: oral
[2] = not given; remark: listed apart in the source
[3] = system: Rat; conditions: in vivo, sc

Row | Structure (SMILES) | LD50 [1] [mg/kg] | Viscosity (cps) at 25° C. [cps] | Water Solubility at 25° C. (g/100 ml) [2] [g/100 ml] | LD50 [3] [mg/kg]
1 | CCCCCCOC(=O)CC(CC(=O)OCCCCCC)(OC(C)=O)C(=O)OCCCCCC [A-6, Acetyltri-n-hexyl Citrate] | 20000 | 36 | – | –
2 | CCCCOC(=O)CC(CC(=O)OCCCC)(OC(C)=O)C(=O)OCCCC [ATBC, Acetyl Tributyl Citrate] | >25000 | 33 | <0.1 | –
3 | CCOC(=O)CC(CC(=O)OCC)(OC(C)=O)C(=O)OCC [ATEC, acetyl triethyl citrate] | 7000 | 54 | – | –
4 | CCCCCCOC(=O)CC(CC(=O)OCCCCCC)(OC(=O)CCC)C(=O)OCCCCCC [B-6, Butyryltri-n-hexyl Citrate] | 2000 | 28 | – | –
5 | CCCCOC(=O)CC(O)(CC(=O)OCCCC)C(=O)OCCCC [TBC, Tributyl Citrate] | >30000 | 32 | <0.1 | –
6 | CCOC(=O)CC(O)(CC(=O)OCC)C(=O)OCC [TEC, triethyl citrate] | – | 35 | – | 6600
